The test system of one test is HT-29. The experiment in a line: Cytotoxicity against human HT-29 cells assessed as growth inhibition after 3 days by SRB assay. The conditions noted are these: HT-29, 72 h. In kind it is functional, cell-based. For orientation: Sulforhodamine B stains cellular protein and so reports cell mass.
Test [1] deals with HCT-116. Description: Cytotoxicity against human HCT116 cells assessed as growth inhibition after 3 days by SRB assay. Format: functional, cell-based. The conditions noted are these: HCT-116, 72 h.
The test system of test [2] is A549. Description: Cytotoxicity against human A549 cells assessed as growth inhibition after 3 days by SRB assay. In kind it is functional, cell-based. The note with it: A549, 72 h.
The subject of test [3] is A549. The experiment in a line: Cytotoxicity against human A549 cells. Format: functional, cell-based.
Test [4] relates to HCT-116. The experiment in a line: Cytotoxicity against human HCT116 cells. Format: functional, cell-based.
In the next test the test system is MDA-MB-231. The experiment in a line: Cytotoxicity against human MDA-MB-231 cells. In kind it is functional, cell-based.
For test [5], the target named is T1, DNA topoisomerase 1 (Homo sapiens) (UniProt P11387).
T1 sequence (whole entry): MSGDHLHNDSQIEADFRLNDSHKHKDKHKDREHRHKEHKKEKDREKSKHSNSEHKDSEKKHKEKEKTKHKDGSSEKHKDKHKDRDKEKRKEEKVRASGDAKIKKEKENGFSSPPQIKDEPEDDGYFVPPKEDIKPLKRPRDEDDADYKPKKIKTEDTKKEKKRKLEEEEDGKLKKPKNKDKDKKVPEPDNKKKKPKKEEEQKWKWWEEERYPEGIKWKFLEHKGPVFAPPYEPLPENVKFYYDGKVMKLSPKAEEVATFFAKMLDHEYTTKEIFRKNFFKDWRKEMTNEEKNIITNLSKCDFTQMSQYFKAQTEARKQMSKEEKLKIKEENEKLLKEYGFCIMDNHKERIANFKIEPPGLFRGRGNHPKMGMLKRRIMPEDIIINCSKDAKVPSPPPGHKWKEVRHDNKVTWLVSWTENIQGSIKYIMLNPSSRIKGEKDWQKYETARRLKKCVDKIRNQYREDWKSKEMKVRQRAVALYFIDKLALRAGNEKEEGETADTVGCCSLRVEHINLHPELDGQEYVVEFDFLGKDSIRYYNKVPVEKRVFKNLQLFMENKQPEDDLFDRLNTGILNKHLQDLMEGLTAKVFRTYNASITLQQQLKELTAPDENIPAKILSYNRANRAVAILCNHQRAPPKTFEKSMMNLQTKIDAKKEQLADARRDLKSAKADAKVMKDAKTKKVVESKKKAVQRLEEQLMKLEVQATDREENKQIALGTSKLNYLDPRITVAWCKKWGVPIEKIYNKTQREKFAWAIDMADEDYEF
Description: Inhibition of topoisomerase 1 (unknown origin)-mediated relaxation of supercoiled pBR322 DNA at 100 uM by agarose gel electrophoresis.

Test [6] has as its target T1, DNA topoisomerase 1 (Homo sapiens). Description: Inhibition of topoisomerase 1 (unknown origin)-mediated relaxation of supercoiled pBR322 DNA at 10 uM by agarose gel electrophoresis.

Activity calls are given as the source filed them. The rule behind the calls is not given here.

Regarding `CCc1c2c(nc3ccc(O)cc13)-c1cc3c(c(=O)n1C2)COC(=O)[C@]3(O)CC` [7-ETHYL-10-HYDROXYCAMPTOTHECIN], the IC50 in the test on HT-29 was 107 nM; in the test with HCT-116 [1] it was 31 nM; in the test with A549 [2], 2.72 nM; with A549 [3], 259 nM; in the test with HCT-116 [4], 166 nM; in the test on MDA-MB-231, 176 nM.

On to `CC[C@@]1(O)C(=O)OCc2c1cc1n(c2=O)Cc2c-1nc1ccccc1c2-c1cccnc1`, for which, in test [5], the inhibition entry was “inactive”. Further, the figures for the IC50 in the test with HT-29, in the test on HCT-116 [1] and in the test with A549 [2] were 133 nM, 60 nM and 5 nM, respectively.

`CC[C@@]1(O)C(=O)OCc2c1cc1n(c2=O)Cc2c-1nc1ccccc1c2-c1ccncc1`: the inhibition result in test [5] is “inactive”. The values for the half-maximal inhibitory concentration (IC50) with HT-29, in the test on HCT-116 [1] and with A549 [2] were 98.7 nM, 45.5 nM and 6.33 nM, respectively.

For the molecule `CC[C@@]1(O)C(=O)OCc2c1cc1n(c2=O)Cc2c-1nc1ccccc1c2-c1cnn(C)c1`, the inhibition entry in test [6] and in test [5] was “Active” in each case. Further, the results for the IC50 with HT-29, with HCT-116 [1] and in the test with A549 [2] were 21.8 nM, 3.51 nM and 2.85 nM, respectively.

Consider `CC[C@@]1(O)C(=O)OCc2c1cc1n(c2=O)Cc2c-1nc1ccccc1c2-c1ccc2cn[nH]c2c1`, for which, in test [5], the inhibition result is “Active”. Also, the IC50 was determined as 57 nM in the test with HT-29, 11 nM in the test with HCT-116 [1] and 3.18 nM in the test on A549 [2].

Regarding `CC[C@@]1(O)C(=O)OCc2c1cc1n(c2=O)Cc2c-1nc1ccccc1c2-c1ccnn1C`, in test [5], the inhibition result is “inactive”. In addition, the IC50 with HT-29 was above 1000 nM; with HCT-116 [1], 458 nM; with A549 [2] it was 56.3 nM.

In the case of `CC[C@@]1(O)C(=O)OCc2c1cc1n(c2=O)Cc2c-1nc1ccccc1c2-c1cnn(C2CCCCO2)c1` (stereo partly drawn), in test [5], the inhibition entry is “Active”. Besides, the IC50 in the test on HT-29 is 90.7 nM; in the test with HCT-116 [1], 40 nM; with A549 [2], 7.26 nM.

On to `CC[C@@]1(O)C(=O)OCc2c1cc1n(c2=O)Cc2c-1nc1ccccc1c2-c1ccc2cc[nH]c2c1`, for which, in test [5], the inhibition result is “Active”. In addition, the results for the concentration for half-maximal inhibition (IC50) in the test on HT-29, in the test on HCT-116 [1] and in the test on A549 [2] were 231 nM, 83.5 nM and 11.1 nM, respectively.

As to `CCCCn1cc(-c2c3c(nc4ccccc24)-c2cc4c(c(=O)n2C3)COC(=O)[C@]4(O)CC)nn1`, the IC50 was below 10 nM in the test on A549 [3], 14 nM with HCT-116 [4] and below 10 nM in the test with MDA-MB-231.

As a reminder, the IC50 is the midpoint of a concentration-inhibition curve.

Values taken from ChEMBL document CHEMBL3124796, “Suzuki coupling based synthesis and in vitro cytotoxic evaluation of 7-heteroaryl-substituted camptothecin analogs” (Bioorg Med Chem Lett, 2014).
